Data published in ChEMBL document CHEMBL4295262, “Evaluation of the utility of stem-cell derived cardiomyocytes for drug proarrhythmic potential” (2019).
Values belong to the compound of their own block, whether it stands above or below them.

Tests used:
Conditions in all cases: human, ipsc-cm
[1] = (§1) Electrical activity assay on cell lines treated with a given drug. DMSO was used as a vehicle and a control, unblinded dofetilide was used as a control.; assay type: cell-based; parameters: APDc: unit not given here
[2] = as §1; assay type: ADME, cell-based; parameters: FPDc: unit not given here
[3] = as §1
[4] = as §1; remark: listed apart in the source
[5] = 0.09507 µM, concentration (um) 0.0950736 uM
[6] = 0.3004 µM, concentration (um) 0.300433 uM
[7] = 0.9494 µM, concentration (um) 0.949367 uM
[8] = 0.003169 µM, concentration (um) 0.00316912 uM
[9] = 0.01001 µM, concentration (um) 0.0100144 uM
[10] = 0.03165 µM, concentration (um) 0.0316456 uM
[11] = 0.1 µM, concentration (um) 0.1 uM
[12] = 10 µM, concentration (um) 10 uM
[13] = 100 µM, concentration (um) 100 uM
[14] = 0.01 µM, concentration (um) 0.01 uM

- APDc [1, 5]: 69.32
- FPD measurement [1, 5]: 69.32 FPDc
- APDc [1, 6]: 63.65
- FPD measurement [1, 6]: 63.65 FPDc
- APDc [1, 7]: 55.94
- FPD measurement [1, 7]: 55.94 FPDc
- APDc ([1]; 3 µM, concentration (um) 3 uM): 58.51
- FPD measurement ([1]; 3 µM, concentration (um) 3 uM): 58.51 FPDc
- FPDc [2, 5]: 0.04224
- FPDc [2, 6]: 0.04702
- FPDc [2, 7]: 0.04411
- FPD measurement ([3]; 0.09507 µM): 53.9 FPDc
- FPDc ([3]; 0.09507 µM): 53.9
- FPD measurement ([3]; 0.3004 µM): 52.05 FPDc
- FPDc ([3]; 0.3004 µM): 52.05
- FPD measurement ([3]; 0.9494 µM): 50.49 FPDc
- FPDc ([3]; 0.9494 µM): 50.49
- FPD measurement ([3]; 3 µM): 44.91 FPDc
- FPDc ([3]; 3 µM): 44.91
Structure (SMILES): CN(C)CCCN1c2ccccc2Sc2ccc(Cl)cc21 [CHLORPROMAZINE]
- FPD measurement ([2]; 3 µM, concentration (um) 3 uM): More Than Half The Wells Had A Quiescence Event Or Fpdc Readings Of 0
- FPDc ([2]; 3 µM, concentration (um) 3 uM): More Than Half The Wells Had A Quiescence Event Or Fpdc Readings Of 0

- APDc [1, 8]: 60.87
- FPD measurement [1, 8]: 60.87 FPDc
- APDc [1, 9]: 62.7
- FPD measurement [1, 9]: 62.7 FPDc
- APDc [1, 10]: 58.7
- FPD measurement [1, 10]: 58.7 FPDc
- APDc [1, 11]: 92.05
- FPD measurement [1, 11]: 92.05 FPDc
- FPDc [2, 8]: 0.04125
- FPDc [2, 9]: 0.03941
- FPDc [2, 10]: 0.04671
- FPDc [2, 11]: 0.04762
Structure (SMILES): COc1cc(N)c(Cl)cc1C(=O)NC1CCN(CCCOc2ccc(F)cc2)CC1OC (stereo unspecified) [CISAPRIDE]
- FPD measurement ([4]; 0.003169 µM): 1 Values Out Of 1 Were Excluded Due To Quiescence Or 0 Fpdc
- FPDc ([4]; 0.003169 µM): 1 Values Out Of 1 Were Excluded Due To Quiescence Or 0 Fpdc
- FPD measurement ([4]; 0.01001 µM): 1 Values Out Of 1 Were Excluded Due To Quiescence Or 0 Fpdc
- FPDc ([4]; 0.01001 µM): 1 Values Out Of 1 Were Excluded Due To Quiescence Or 0 Fpdc
- FPD measurement ([4]; 0.03165 µM): 1 Values Out Of 1 Were Excluded Due To Quiescence Or 0 Fpdc
- FPDc ([4]; 0.03165 µM): 1 Values Out Of 1 Were Excluded Due To Quiescence Or 0 Fpdc
- FPD measurement ([4]; 0.1 µM): 1 Values Out Of 1 Were Excluded Due To Quiescence Or 0 Fpdc
- FPDc ([4]; 0.1 µM): 1 Values Out Of 1 Were Excluded Due To Quiescence Or 0 Fpdc

- APDc [1, 11]: 48.18
- FPD measurement [1, 11]: 48.18 FPDc
- APDc ([1]; 1 µM, concentration (um) 1 uM): 53.12
- FPD measurement ([1]; 1 µM, concentration (um) 1 uM): 53.12 FPDc
- APDc [1, 12]: 61.24
- FPD measurement [1, 12]: 61.24 FPDc
- APDc [1, 13]: 79.49
- FPD measurement [1, 13]: 79.49 FPDc
- FPDc [2, 11]: 0.03502
- FPDc ([2]; 1 µM, concentration (um) 1 uM): 0.03611
- FPDc [2, 12]: 0.04288
- FPDc [2, 13]: 0.03271
Structure (SMILES): CC[C@H]1OC(=O)[C@H](C)[C@@H](O[C@H]2C[C@@](C)(OC)[C@@H](O)[C@H](C)O2)[C@H](C)[C@@H](O[C@@H]2O[C@H](C)C[C@H](N(C)C)[C@H]2O)[C@](C)(OC)C[C@@H](C)C(=O)[C@H](C)[C@@H](O)[C@]1(C)O [CLARITHROMYCIN]

- APDc [1, 14]: 56.41
- FPD measurement [1, 14]: 56.41 FPDc
- APDc [1, 11]: 49.22
- FPD measurement [1, 11]: 49.22 FPDc
- APDc ([1]; 1 µM, concentration (um) 1 uM): 40.25
- FPD measurement ([1]; 1 µM, concentration (um) 1 uM): 40.25 FPDc
- APDc [1, 12]: 32.58
- FPD measurement [1, 12]: 32.58 FPDc
- FPDc [2, 14]: 0.0252
- FPD measurement ([3]; 0.01 µM): 53.63 FPDc
- FPDc ([3]; 0.01 µM): 53.63
- FPD measurement ([3]; 0.1 µM): 45.42 FPDc
- FPDc ([3]; 0.1 µM): 45.42
- FPD measurement ([3]; 1 µM): 28.2 FPDc
- FPDc ([3]; 1 µM): 28.2
- FPD measurement ([3]; 10 µM): 13.87 FPDc
- FPDc ([3]; 10 µM): 13.87
Structure (SMILES): COc1ccc([C@@H]2Sc3ccccc3N(CCN(C)C)C(=O)[C@@H]2OC(C)=O)cc1 [DILTIAZEM]
- FPD measurement [2, 11]: More Than Half The Wells Had A Quiescence Event Or Fpdc Readings Of 0
- FPDc [2, 11]: More Than Half The Wells Had A Quiescence Event Or Fpdc Readings Of 0
- FPD measurement ([2]; 1 µM, concentration (um) 1 uM): More Than Half The Wells Had A Quiescence Event Or Fpdc Readings Of 0
- FPDc ([2]; 1 µM, concentration (um) 1 uM): More Than Half The Wells Had A Quiescence Event Or Fpdc Readings Of 0
- FPD measurement [2, 12]: More Than Half The Wells Had A Quiescence Event Or Fpdc Readings Of 0
- FPDc [2, 12]: More Than Half The Wells Had A Quiescence Event Or Fpdc Readings Of 0
